Laboratory results from ChEMBL document CHEMBL5325448, “Design, synthesis and biological evaluation of phosphoroxy quinazoline derivatives as potential EGFRT790M/C797S inhibitors” (Bioorg Med Chem, 2023).

Tests used:
[1] = biological target: Epidermal growth factor receptor (Homo sapiens, UniProt P00533, C797S/L858R/T790M); test: Inhibition of EGFR L858R/T790M/C797S triple mutant (unknown origin) using TK as substrate incubated for 120 mins in presence of ATP by HTRF assay
[2] = biological target: Epidermal growth factor receptor (Homo sapiens, UniProt P00533, C797S/EX19DEL/T790M); test: Inhibition of EGFR Del19/T790M/C797S triple mutant (unknown origin) using TK as substrate incubated for 120 mins in presence of ATP by HTRF assay
Epidermal growth factor receptor (Homo sapiens, UniProt P00533, C797S/EX19DEL/T790M), sequence (P00533 whole entry, looked up, stated change not applied): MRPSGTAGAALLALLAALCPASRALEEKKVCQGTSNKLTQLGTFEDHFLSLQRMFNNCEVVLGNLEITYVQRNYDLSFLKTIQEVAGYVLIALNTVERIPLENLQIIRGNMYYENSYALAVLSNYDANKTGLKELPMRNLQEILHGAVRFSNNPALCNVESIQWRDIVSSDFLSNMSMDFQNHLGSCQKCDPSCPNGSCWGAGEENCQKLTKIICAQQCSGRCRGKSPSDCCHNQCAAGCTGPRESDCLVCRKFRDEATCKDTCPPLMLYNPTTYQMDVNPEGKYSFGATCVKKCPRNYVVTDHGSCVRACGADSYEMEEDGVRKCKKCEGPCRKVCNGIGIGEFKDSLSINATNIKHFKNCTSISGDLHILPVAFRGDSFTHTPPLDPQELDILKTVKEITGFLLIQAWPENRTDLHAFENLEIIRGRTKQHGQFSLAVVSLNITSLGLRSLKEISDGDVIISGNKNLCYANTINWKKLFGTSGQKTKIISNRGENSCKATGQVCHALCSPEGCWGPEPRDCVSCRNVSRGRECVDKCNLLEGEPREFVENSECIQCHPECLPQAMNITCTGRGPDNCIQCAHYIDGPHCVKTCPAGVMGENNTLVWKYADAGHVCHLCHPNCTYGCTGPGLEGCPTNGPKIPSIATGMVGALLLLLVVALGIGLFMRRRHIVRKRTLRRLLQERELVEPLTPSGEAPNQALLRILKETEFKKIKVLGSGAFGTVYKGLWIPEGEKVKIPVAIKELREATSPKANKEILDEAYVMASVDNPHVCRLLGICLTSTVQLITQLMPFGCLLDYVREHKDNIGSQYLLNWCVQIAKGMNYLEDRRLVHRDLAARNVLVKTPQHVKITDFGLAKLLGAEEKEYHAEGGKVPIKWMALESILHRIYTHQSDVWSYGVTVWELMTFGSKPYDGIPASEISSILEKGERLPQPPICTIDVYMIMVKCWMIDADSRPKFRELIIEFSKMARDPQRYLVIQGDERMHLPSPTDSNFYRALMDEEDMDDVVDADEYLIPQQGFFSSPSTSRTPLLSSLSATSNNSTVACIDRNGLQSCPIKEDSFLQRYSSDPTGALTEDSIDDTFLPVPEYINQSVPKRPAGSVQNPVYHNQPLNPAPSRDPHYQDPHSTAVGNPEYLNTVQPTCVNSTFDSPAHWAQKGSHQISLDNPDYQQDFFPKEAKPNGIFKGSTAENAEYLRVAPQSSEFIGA

[3] = Cytotoxicity against mouse Ba/F3 EGFR-Del19/T790M/C797S cells assessed as cell growth inhibition measured after 72 hrs by CellTiter-Glo luminescent assay; type: functional, cell-based
[4] = biological target: Epidermal growth factor receptor (Homo sapiens, UniProt P00533); test: Inhibition of wild type EGFR (unknown origin) using TK as substrate incubated for 120 mins in presence of ATP by HTRF assay
Epidermal growth factor receptor (Homo sapiens, UniProt P00533), sequence (P00533 whole entry): as the sequence (P00533 whole entry, looked up, stated change not applied) above

[5] = Cmax in BALB/c mouse at 5 mg/kg, po measured upto 24 hrs by LC-MS/MS analysis; type: ADME, organism-based; parameters: dose 5 mg/kg, time < 24 hrs, route po; details: in vivo
[6] = AUC (0 to t) in BALB/c mouse at 5 mg/kg, po measured upto 24 hrs by LC-MS/MS analysis; type: ADME, organism-based; parameters: time < 24 hrs, dose 5 mg/kg, route po; details: in vivo
[7] = AUC (0 to infinity) in BALB/c mouse at 5 mg/kg, po measured upto 24 hrs by LC/MS-MS analysis; type: ADME, organism-based; parameters: time < 24 hrs, dose 5 mg/kg, route po; details: in vivo
[8] = Antitumor activity against mouse Ba/F3 EGFR-Del19/T790M/C797S cells xenografted in BALB/c nude mouse assessed as tumor growth inhibition at 30 mg/kg, po administered once a day for 14 consecutive days and measured twice a week relative to control; type: functional; details: 336 h, time 14 day, read-out: TGI
[9] = Half life in BALB/c mouse at 5 mg/kg, po measured upto 24 hrs by LC/MS-MS analysis; type: ADME, organism-based; details: in vivo
[10] = MRT in BALB/c mouse at 5 mg/kg, po measured upto 24 hrs by LC-MS/MS analysis; type: ADME, organism-based; details: in vivo
PC-9 [11] = test: Antitumor activity against human PC-9 cells harboring EGFR Del19/T790M/C797S triple mutant xenografted in NOD/SCID mouse assessed as tumor growth inhibition at 15 mg/kg, po administered once a day for 21 consecutive days and measured twice a week relative to control; type: functional; details: PC-9, 504 h, time 21 day, read-out: TGI
PC-9 [12] = test: Antitumor activity against human PC-9 cells harboring EGFR Del19/T790M/C797S triple mutant xenografted in NOD/SCID mouse assessed as tumor growth inhibition at 30 mg/kg, po administered once a day for 21 consecutive days and measured twice a week relative to control; type: functional; details: PC-9, 504 h, time 21 day, read-out: TGI
[13] = Antitumor activity against mouse Ba/F3 EGFR-Del19/T790M/C797S cells xenografted in BALB/c nude mouse assessed as tumor growth inhibition at 15 mg/kg, po administered once a day for 14 consecutive days and measured twice a week relative to control; type: functional; details: 336 h, time 14 day, read-out: TGI
A-431 = test: Cytotoxicity against human A-431 cells assessed as cell growth inhibition incubated for 72 hrs by CellTiter-Glo luminescent assay; type: functional, cell-based; details: A-431, 72 h

Epidermal growth factor receptor (Homo sapiens, UniProt P00533, C797S/L858R/T790M), sequence (P00533 25-1210 T790M/C797S/L858R limits assumed): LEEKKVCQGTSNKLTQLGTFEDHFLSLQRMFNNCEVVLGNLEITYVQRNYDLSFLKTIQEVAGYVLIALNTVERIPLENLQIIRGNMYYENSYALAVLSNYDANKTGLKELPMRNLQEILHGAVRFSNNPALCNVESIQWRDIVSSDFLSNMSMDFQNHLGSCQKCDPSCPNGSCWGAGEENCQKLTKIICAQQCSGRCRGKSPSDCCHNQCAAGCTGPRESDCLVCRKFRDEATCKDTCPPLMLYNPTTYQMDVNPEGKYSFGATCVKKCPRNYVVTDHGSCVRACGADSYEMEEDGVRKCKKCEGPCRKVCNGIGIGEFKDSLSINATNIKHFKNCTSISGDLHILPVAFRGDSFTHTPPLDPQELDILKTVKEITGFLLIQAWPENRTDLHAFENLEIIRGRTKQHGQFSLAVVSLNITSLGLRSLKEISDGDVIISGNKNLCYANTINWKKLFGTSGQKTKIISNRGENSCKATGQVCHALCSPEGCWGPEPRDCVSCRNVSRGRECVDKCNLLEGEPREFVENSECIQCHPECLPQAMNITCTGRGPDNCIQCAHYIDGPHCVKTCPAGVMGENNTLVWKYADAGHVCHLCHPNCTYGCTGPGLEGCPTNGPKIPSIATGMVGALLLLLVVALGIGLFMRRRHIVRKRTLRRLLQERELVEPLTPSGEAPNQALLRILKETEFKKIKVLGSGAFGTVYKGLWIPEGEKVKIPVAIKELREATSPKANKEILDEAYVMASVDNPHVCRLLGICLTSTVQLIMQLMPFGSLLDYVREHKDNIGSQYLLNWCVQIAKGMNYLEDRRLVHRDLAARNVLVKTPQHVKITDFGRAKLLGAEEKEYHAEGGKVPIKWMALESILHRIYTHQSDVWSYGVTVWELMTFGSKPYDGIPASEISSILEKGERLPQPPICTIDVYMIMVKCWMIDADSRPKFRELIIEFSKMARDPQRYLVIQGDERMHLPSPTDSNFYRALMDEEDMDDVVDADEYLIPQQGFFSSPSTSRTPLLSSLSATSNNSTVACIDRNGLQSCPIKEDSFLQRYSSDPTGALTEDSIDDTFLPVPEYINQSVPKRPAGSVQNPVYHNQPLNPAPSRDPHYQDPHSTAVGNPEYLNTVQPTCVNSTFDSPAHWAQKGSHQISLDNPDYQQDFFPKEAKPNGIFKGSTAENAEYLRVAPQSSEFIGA

## COCC1CN(C2CCN(c3cc(OC)c(Nc4ncc(Br)c(Nc5ccc6nccnc6c5P(C)(C)=O)n4)cc3C)CC2)C1
[1]
  IC50: 0.06 nM
[2]
  IC50: 0.69 nM
[3]
  IC50: 15 nM

## CCc1cc(Nc2ncc(Cl)c(Nc3ccc4nccnc4c3P(C)(C)=O)n2)c(OC)cc1N1CCC(N2CC(N(C)C)C2)CC1
[1]
  IC50: 0.4 nM
[2]
  IC50: 0.61 nM
[4]
  IC50: > 500 nM
[3]
  IC50: 29.7 nM

## COc1cc(N2CCC(N3CC(N(C)C)C3)CC2)c(C)cc1Nc1ncc(Cl)c(Nc2ccc3nccnc3c2P(C)(C)=O)n1
[1]
  IC50: 0.12 nM
[2]
  IC50: 0.25 nM
[3]
  IC50: 16.3 nM

## COc1cc(N2CCC(N3CC(N(C)C)C3)CC2)c(C)cc1Nc1ncc(Br)c(Nc2ccc3nccnc3c2P(C)(C)=O)n1
[2]
  IC50: 0.06 nM
[3]
  IC50: 12.7 nM
[5]
  Cmax: 1570 ng/mL
[6]
  AUC(0-t) at 24 h: 15400 ng·h/mL
[7]
  AUC(0-inf): 15600 ng·h/mL
[8]
  inhibition in vivo at 30 mg/kg: 82.6%
[9]
  half-life: 3.5 h
[10]
  MRT: 6 h
PC-9 [11]
  inhibition in vivo at 15 mg/kg: 21.6%
PC-9 [12]
  inhibition in vivo at 30 mg/kg: 46.8%
[13]
  inhibition in vivo at 15 mg/kg: 48.4%

## COc1cc(N2CCC(N3C[C@H]4COC[C@H]4C3)CC2)c(C)cc1Nc1ncc(Br)c(Nc2ccc3nccnc3c2P(C)(C)=O)n1
[1]
  IC50: 0.12 nM
[3]
  IC50: 11 nM
A-431
  IC50: 425 nM
[5]
  Cmax: 1360 ng/mL
[6]
  AUC(0-t) at 24 h: 11200 ng·h/mL
[7]
  AUC(0-inf): 11200 ng·h/mL
[9]
  half-life: 3.3 h
[10]
  MRT: 5.6 h

## CCOC1CN(C2CCN(c3cc(OC)c(Nc4ncc(Br)c(Nc5ccc6nccnc6c5P(C)(C)=O)n4)cc3C)CC2)C1
[2]
  IC50: 0.65 nM
[3]
  IC50: 29 nM

## COc1cc(N2CCC(N3CCN(C)CC3)CC2)ccc1Nc1ncc(Cl)c(Nc2ccccc2P(C)(C)=O)n1 [BRIGATINIB]
[3]
  IC50: 433 nM
[5]
  Cmax: 927 ng/mL
[6]
  AUC(0-t) at 24 h: 6490 ng·h/mL
[7]
  AUC(0-inf): 6500 ng·h/mL
[9]
  half-life: 2.8 h

## COCC1(C)CN(C2CCN(c3cc(OC)c(Nc4ncc(Br)c(Nc5ccc6nccnc6c5P(C)(C)=O)n4)cc3C)CC2)C1
[1]
  IC50: 0.81 nM
[2]
  IC50: 0.3 nM
[4]
  IC50: > 500 nM
[3]
  IC50: 22.3 nM

## COc1cc(N2CCC(N3CC(C)(CO)C3)CC2)c(C)cc1Nc1ncc(Br)c(Nc2ccc3nccnc3c2P(C)(C)=O)n1
[1]
  IC50: 0.15 nM
[2]
  IC50: 0.06 nM
[3]
  IC50: 17.7 nM

## COc1cc(N2CCC(N3CC(F)(CO)C3)CC2)c(C)cc1Nc1ncc(Br)c(Nc2ccc3nccnc3c2P(C)(C)=O)n1
[1]
  IC50: 0.1 nM
[2]
  IC50: 0.13 nM
[4]
  IC50: > 500 nM
[3]
  IC50: 18.7 nM
A-431
  IC50: 808 nM
[5]
  Cmax: 1730 ng/mL
[6]
  AUC(0-t) at 24 h: 16900 ng·h/mL
[7]
  AUC(0-inf): 17000 ng·h/mL
[9]
  half-life: 3.7 h
[10]
  MRT: 6.3 h

## COc1cc(N2CCC(N3CC(C(C)(C)O)C3)CC2)c(C)cc1Nc1ncc(Br)c(Nc2ccc3nccnc3c2P(C)(C)=O)n1
[1]
  IC50: 0.15 nM
[2]
  IC50: 0.07 nM
[3]
  IC50: 18 nM

## CCc1cc(Nc2ncc(Br)c(Nc3ccc4nccnc4c3P(C)(C)=O)n2)c(OC)cc1N1CCC(N2CC(N(C)C)C2)CC1
[2]
  IC50: 0.11 nM
[3]
  IC50: 16.3 nM

## COc1cc(N2CCC(N3CC(CO)C3)CC2)c(C)cc1Nc1ncc(Br)c(Nc2ccc3nccnc3c2P(C)(C)=O)n1
[1]
  IC50: 0.34 nM
[2]
  IC50: 0.57 nM
[4]
  IC50: 590 nM
[3]
  IC50: 41 nM

## COc1cc(N2CCC(N3CC(N(C)C)C3)CC2)c(C)cc1Nc1ncc(SC)c(Nc2ccc3nccnc3c2P(C)(C)=O)n1
[1]
  IC50: 0.05 nM
[2]
  IC50: 0.39 nM
[3]
  IC50: 19.7 nM

## COc1cc(N2CCC(N3CCN(C(C)=O)CC3)CC2)c(C)cc1Nc1ncc(Br)c(Nc2ccc3nccnc3c2P(C)(C)=O)n1
[1]
  IC50: 0.12 nM
[2]
  IC50: 0.07 nM
[4]
  IC50: 500 nM
[3]
  IC50: 17.7 nM
A-431
  IC50: 578 nM

## CCc1cc(Nc2ncc(C(F)(F)F)c(Nc3ccc4nccnc4c3P(C)(C)=O)n2)c(OC)cc1N1CCC(N2CC(N(C)C)C2)CC1
[3]
  IC50: 54 nM
A-431
  IC50: 547 nM

## COc1cc(N2CCC(N3CC(CC#N)C3)CC2)c(C)cc1Nc1ncc(Br)c(Nc2ccc3nccnc3c2P(C)(C)=O)n1
[1]
  IC50: 0.12 nM
[2]
  IC50: 0.33 nM
[4]
  IC50: 461 nM
[3]
  IC50: 12.7 nM
[5]
  Cmax: 1270 ng/mL
[6]
  AUC(0-t) at 24 h: 11200 ng·h/mL
[7]
  AUC(0-inf): 11200 ng·h/mL
[9]
  half-life: 3.1 h
[10]
  MRT: 5.12 h

## COc1cc(N2CCC(N(C)CCN(C)C)CC2)c(C)cc1Nc1ncc(Br)c(Nc2ccc3nccnc3c2P(C)(C)=O)n1
[1]
  IC50: 0.15 nM
[2]
  IC50: 0.06 nM
[3]
  IC50: 16 nM
A-431
  IC50: 406 nM

## COc1cc(N2CCC(N3CC[C@@H](N(C)C)C3)CC2)c(C)cc1Nc1ncc(Br)c(Nc2ccc3nccnc3c2P(C)(C)=O)n1
[1]
  IC50: 0.13 nM
[3]
  IC50: 9 nM
